Measured values taken from US9981983B2, “Thienopyranones as kinase inhibitors” (SignalRx Pharmaceuticals, Inc., priority 2008, dated 2018).

Test system: LNCaP cells
Assay: Oxidative stress of prostate cancer cells (8-iso-Prostaglandin F2α ELISA)
Assay type: cell-based
Details: for OD450 nm reading / 8-iso-Prostaglandin F2α generated: 20 μM; for 8-iso-Prostaglandin F2α generated: control 1.5 μg/mL
Procedure: LNCaP cells were obtained from the American Type Culture Collection (ATCC, Manassas, Va., Cat.# CRL-1740). 3.5 million cells from the prostate cancer line LNCaP were placed into each of three 10 cm culture dishes and allowed to grow overnight in complete RPMI 1640 media (Invitrogen, Carlsbad, Calif., Cat.#22400-105) with 10% fetal bovine serum (Invitrogen, Carlsbad, Calif., Cat#10438-026). Test compound was added into the dishes to the concentration of 0 and 20 μM and allowed to incubate at 37° C. in a 5% CO2 atmosphere for 2 and 24 hours. Following this the pH of the cell culture media was adjusted down to 3.5 with 2M HCl. After sitting at 4° C. for 15 minutes, the cell culture media from each culture dishes was applied to each of three C18 reverse phase columns (Biotage ISOLUTE, Part #220-0020-B, Lot #5223506B2A, www.biotage.com) which were prewashed with 10 mL/column of ethanol followed by 10 mL/column of deionized water. The loaded columns were then washed with 10 mL/column of water, followed by 10 mL/column of 15% ethanol, and finally 10 mL/column hexane. The desired samples were then eluted from the columns by addition of 10 mL/column ethyl acetate. The ethyl acetate was then evaporated to dryness using a rotating evaporator. Each sample was then dissolved in 500 μL of Assay Buffer provided in BioMol's Isoprostane Oxidative Stress Assay Kit A (Cat. # AK150-0001, Lot #3-08010825). Using the kit reagents according to the manufacturer's instructions the oxidative product 8-iso-Prostaglandin F2α was quantitated by ELISA. Also, using reagents from the kit a standard curve of oxidation product (8-iso-Prostaglandin F2α) versus optical density reading at 450 nm. From this curve optical density readings from the test samples were converted to μg/mL of the oxidation marker 8-iso-Prostaglandin F2α. This kit from BioMol is designed to determine the amount of the 8-iso-Prostaglandin F2α produced as a marker for the amount of oxidative stress experienced by the cells.

Q: Which OD450 nm reading (2 hours exposure) does the source give for `O=c1cc(N2CCOCC2)oc2c(-c3ccc4c(c3)OCCO4)csc12` [Compound 28, 3-(2,3-dihydrobenzo[b][1,4]dioxin-6-yl)-5-morpholino-7H-thieno[3,2-b]pyran-7-one] here?
A: The OD450 nm reading was 1.01 units.

Q: What about the “8-iso-Prostaglandin F2α generated” value (2 hours) of the same compound?
A: Its value is 18.0 µg/mL.

Q: What about the OD450 nm reading (24 hours exposure) of the same compound?
A: Its OD450 nm reading is 0.96 units.

Q: What about the “8-iso-Prostaglandin F2α generated” value (24 hours) of the same compound?
A: Its value is 21.0 µg/mL.

Q: What about the “increase of oxidation marker 8-iso-Prostaglandin F2α relative to untreated controls” value (2 hours) of the same compound?
A: The value was 12 fold.

Q: And the “increase of oxidation marker 8-iso-Prostaglandin F2α relative to untreated controls” value (24 hours)?
A: Its value is 14 fold.
